According to ChEMBL document CHEMBL1255530, “3D-QSAR CoMFA study of benzoxazepine derivatives as mGluR5 positive allosteric modulators” (Bioorg Med Chem Lett, 2010):

target: Metabotropic glutamate receptor 5 (Rattus norvegicus, UniProt P31424); assay: Positive allosteric modulation of rat mGluR5 expressed in HEK293 cells
Sequence (P31424 whole entry): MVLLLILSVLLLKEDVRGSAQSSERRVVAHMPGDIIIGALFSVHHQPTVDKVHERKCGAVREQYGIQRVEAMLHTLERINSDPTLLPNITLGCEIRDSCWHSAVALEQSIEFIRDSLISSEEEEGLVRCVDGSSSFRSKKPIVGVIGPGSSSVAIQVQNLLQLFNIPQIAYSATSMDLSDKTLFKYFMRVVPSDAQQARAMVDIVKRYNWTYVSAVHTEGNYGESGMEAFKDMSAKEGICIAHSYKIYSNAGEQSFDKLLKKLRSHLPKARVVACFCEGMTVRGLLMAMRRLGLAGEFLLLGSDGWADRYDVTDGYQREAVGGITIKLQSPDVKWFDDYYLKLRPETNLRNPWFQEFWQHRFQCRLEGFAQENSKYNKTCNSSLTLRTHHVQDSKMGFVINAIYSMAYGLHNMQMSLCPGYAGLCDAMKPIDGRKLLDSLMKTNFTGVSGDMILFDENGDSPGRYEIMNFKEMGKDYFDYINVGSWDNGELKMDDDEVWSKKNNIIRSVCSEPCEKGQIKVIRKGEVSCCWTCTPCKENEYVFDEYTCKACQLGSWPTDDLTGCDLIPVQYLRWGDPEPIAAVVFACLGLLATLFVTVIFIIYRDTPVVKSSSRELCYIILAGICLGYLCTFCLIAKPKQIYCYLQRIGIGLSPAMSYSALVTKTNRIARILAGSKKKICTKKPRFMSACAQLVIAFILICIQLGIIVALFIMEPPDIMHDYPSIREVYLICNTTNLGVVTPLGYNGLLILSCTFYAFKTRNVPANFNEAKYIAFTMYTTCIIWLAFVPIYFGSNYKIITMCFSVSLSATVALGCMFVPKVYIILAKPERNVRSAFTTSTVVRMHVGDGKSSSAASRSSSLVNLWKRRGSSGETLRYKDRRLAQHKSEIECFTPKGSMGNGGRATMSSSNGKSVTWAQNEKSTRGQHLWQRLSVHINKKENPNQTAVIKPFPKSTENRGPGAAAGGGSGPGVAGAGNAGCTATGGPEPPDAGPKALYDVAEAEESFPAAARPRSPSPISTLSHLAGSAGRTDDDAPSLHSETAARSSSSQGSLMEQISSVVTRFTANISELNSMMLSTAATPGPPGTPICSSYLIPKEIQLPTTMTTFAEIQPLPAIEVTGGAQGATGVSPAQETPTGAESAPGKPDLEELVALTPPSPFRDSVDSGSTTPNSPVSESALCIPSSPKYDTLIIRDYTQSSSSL

EC50	Structure (SMILES)
3980 nM	CCCCSc1nnc2c(n1)O[C@@H](CC)N(C(C)=O)c1ccccc1-2
1820 nM	CSc1nnc2c(n1)O[C@@H](c1cn(C)c3ccccc13)N(C(C)=O)c1ccccc1-2
3800 nM	CSc1nnc2c(n1)O[C@@H](c1ccc(OC(C)=O)c(Br)c1)N(C(C)=O)c1ccccc1-2
1350 nM	CCC(=O)N1c2ccccc2-c2nnc(SC)nc2O[C@H]1c1ccccc1Br
7080 nM	CCOc1cc([C@@H]2Oc3nc(SC)nnc3-c3ccccc3N2C(=O)CC)cc(Br)c1OC
1020 nM	CCCC(=O)N1c2ccccc2-c2nnc(SC)nc2O[C@H]1c1cccc(OC)c1
1950 nM	CCC(=O)N1c2ccccc2-c2nnc(SC)nc2O[C@H]1c1ccc(C)s1
7590 nM	CSc1nnc2c(n1)O[C@@H](c1cccc(C)n1)N(C(C)=O)c1ccccc1-2
5250 nM	CSc1nnc2c(n1)O[C@@H](c1ccccn1)N(C(C)=O)c1ccccc1-2
1200 nM	CCC(=O)N1c2ccccc2-c2nnc(SC)nc2O[C@H]1c1cc(Cl)c(OC)c(OC)c1
513 nM	CCCCSc1nnc2c(n1)O[C@@H](c1cccc(F)c1)N(C(C)=O)c1ccccc1-2
7410 nM	CCC(=O)N1c2ccccc2-c2nnc(SC)nc2O[C@H]1c1ccccn1
2570 nM	C=CCOc1ccc([C@@H]2Oc3nc(SC)nnc3-c3ccccc3N2C(C)=O)cc1
2750 nM	CSc1nnc2c(n1)O[C@@H](c1ccc(C)cc1)N(C(C)=O)c1ccccc1-2
692 nM	CCCCSc1nnc2c(n1)O[C@@H](c1cccn1C)N(C(C)=O)c1ccccc1-2
3630 nM	CCC(=O)N1c2ccccc2-c2nnc(SC)nc2O[C@H]1c1ccc(OC)c(C)c1
813 nM	CCSc1nnc2c(n1)O[C@@H](c1cc(Br)ccc1OC)N(C(=O)CC)c1ccccc1-2
4370 nM	CCSc1nnc2c(n1)O[C@@H](c1ccccn1)N(C(=O)CC)c1ccccc1-2
2950 nM	CSc1nnc2c(n1)O[C@@H](c1cccc(Oc3ccccc3)c1)N(C(C)=O)c1ccccc1-2
3020 nM	CSc1nnc2c(n1)O[C@@H](c1ccccc1C)N(C(C)=O)c1ccccc1-2
1230 nM	CCC(=O)N1c2ccccc2-c2nnc(SC)nc2O[C@H]1c1cc(Br)c(OC)c(OC)c1
107 nM	CCSc1nnc2c(n1)O[C@@H](c1cccc(OC)c1)N(C(=O)CC)c1ccccc1-2
1230 nM	CCSc1nnc2c(n1)O[C@@H](c1ccc(SC)cc1)N(C(=O)CC)c1ccccc1-2
7760 nM	C=CCSc1nnc2c(n1)O[C@@H](c1ccc(OC)c(OC)c1OC)N(C(C)=O)c1ccccc1-2
1020 nM	CSc1nnc2c(n1)O[C@@H](c1ccsc1)N(C(C)=O)c1ccccc1-2

EC50	Structure (SMILES)
891 nM	COc1ccc(OC)c([C@@H]2Oc3nc(SC)nnc3-c3ccccc3N2C(C)=O)c1
1780 nM	CCC(=O)N1c2ccccc2-c2nnc(SC)nc2O[C@H]1c1ccccc1F
1260 nM	C=CCSc1nnc2c(n1)O[C@@H](c1ccc(OC(C)=O)c(OCC)c1)N(C(C)=O)c1ccccc1-2
2340 nM	CCC(=O)N1c2ccccc2-c2nnc(SC)nc2O[C@H]1c1cccc(C)n1
5750 nM	CCC(=O)Oc1ccc(Br)c([C@@H]2Oc3nc(SC)nnc3-c3ccccc3N2C(=O)CC)c1
1200 nM	CCCSc1nnc2c(n1)O[C@@H](c1cc(OC)c(OC)cc1Cl)N(C(C)=O)c1ccccc1-2
347 nM	CCCSc1nnc2c(n1)O[C@@H](c1cccn1C)N(C(C)=O)c1ccccc1-2
891 nM	C=CCSc1nnc2c(n1)O[C@@H](c1cc(C)ccc1OC(C)=O)N(C(C)=O)c1ccccc1-2
832 nM	CCC(=O)N1c2ccccc2-c2nnc(SC)nc2O[C@H]1c1cc(OC)c(OC)c(OC)c1
309 nM	CCSc1nnc2c(n1)O[C@@H](c1cccs1)N(C(=O)CC)c1ccccc1-2
813 nM	CCSc1nnc2c(n1)O[C@@H](c1ccco1)N(C(=O)CC)c1ccccc1-2
479 nM	CCCCSc1nnc2c(n1)O[C@@H](c1ccsc1)N(C(C)=O)c1ccccc1-2
617 nM	CCCCSc1nnc2c(n1)O[C@@H](c1cccc(C)n1)N(C(C)=O)c1ccccc1-2
2240 nM	CCCC(=O)N1c2ccccc2-c2nnc(SC)nc2O[C@H]1c1ccc(C(=O)OC)cc1
692 nM	C=CCSc1nnc2c(n1)O[C@@H](c1ccc(OCC)c(OC)c1)N(C(C)=O)c1ccccc1-2
457 nM	C=CCSc1nnc2c(n1)O[C@@H](c1sccc1C)N(C(C)=O)c1ccccc1-2
5250 nM	CCC(=O)N1c2ccccc2-c2nnc(SC)nc2O[C@H]1c1cc2c(cc1Cl)OCO2
398 nM	CCSc1nnc2c(n1)O[C@@H](c1ccccc1F)N(C(C)=O)c1ccccc1-2
229 nM	C=CCSc1nnc2c(n1)O[C@@H](/C=C/c1cccs1)N(C(C)=O)c1ccccc1-2
3310 nM	C=CCSc1nnc2c(n1)O[C@@H](c1cc(Br)c(OC(C)=O)c(OC)c1)N(C(C)=O)c1ccccc1-2
4270 nM	CCC(=O)N1c2ccccc2-c2nnc(SC)nc2O[C@H]1c1ccco1
3310 nM	CSc1nnc2c(n1)O[C@@H](c1cccc(OCc3ccccc3)c1)N(C(C)=O)c1ccccc1-2
646 nM	CCCSc1nnc2c(n1)O[C@@H](c1ccccc1F)N(C(=O)CC)c1ccccc1-2
1120 nM	C=CCSc1nnc2c(n1)O[C@@H](c1ccccc1F)N(C(C)=O)c1ccccc1-2
1700 nM	C=CCSc1nnc2c(n1)O[C@@H](/C=C/c1ccccc1)N(C(C)=O)c1ccccc1-2

EC50	Structure (SMILES)
1410 nM	CCC(=O)N1c2ccccc2-c2nnc(SC)nc2O[C@H]1c1ccc(I)o1
871 nM	CCC(=O)N1c2ccccc2-c2nnc(SC)nc2O[C@H]1c1ccc(Cl)cc1
3890 nM	CCCC(=O)N1c2ccccc2-c2nnc(SC)nc2O[C@H]1c1cccnc1
1860 nM	CCCC(=O)N1c2ccccc2-c2nnc(SC)nc2O[C@H]1c1sccc1C
316 nM	C=CCSc1nnc2c(n1)O[C@@H](c1cccs1)N(C(C)=O)c1ccccc1-2
1020 nM	C=CCSc1nnc2c(n1)O[C@@H](c1ccco1)N(C(C)=O)c1ccccc1-2
2000 nM	CCC(=O)N1c2ccccc2-c2nnc(SC)nc2O[C@H]1c1ccccc1C
1100 nM	CCC(=O)N1c2ccccc2-c2nnc(SC)nc2O[C@H]1c1ccc(OC)c(Br)c1
6760 nM	CCCSc1nnc2c(n1)O[C@@H](CC)N(C(C)=O)c1ccccc1-2
13800 nM	CCSc1nnc2c(n1)O[C@@H](C)N(C(C)=O)c1ccccc1-2
95.5 nM	C=CCSc1nnc2c(n1)O[C@@H](c1ccccc1)N(C(C)=O)c1ccccc1-2
562 nM	C=CCSc1nnc2c(n1)O[C@@H](c1ccccn1)N(C(C)=O)c1ccccc1-2
1320 nM	C=CCSc1nnc2c(n1)O[C@@H](c1ccccc1OCCC)N(C(C)=O)c1ccccc1-2
759 nM	CCC(=O)N1c2ccccc2-c2nnc(SC)nc2O[C@H]1c1cc(Cl)ccc1OC
2750 nM	COc1ccc([C@@H]2Oc3nc(SC)nnc3-c3ccccc3N2C(C)=O)cc1
3470 nM	CSc1nnc2c(n1)O[C@@H](c1ccccc1F)N(C(C)=O)c1ccccc1-2
871 nM	CSc1nnc2c(n1)O[C@H](c1cn(C(C)=O)c3ccccc13)N(C(C)=O)c1ccccc1-2
1200 nM	C=CCOc1ccc([C@@H]2Oc3nc(SCC=C)nnc3-c3ccccc3N2C(C)=O)cc1
3160 nM	C=CCSc1nnc2c(n1)O[C@@H](c1ccc(N(C)C)cc1)N(C(C)=O)c1ccccc1-2
2190 nM	CCC(=O)N1c2ccccc2-c2nnc(SC)nc2O[C@H]1c1ccc(OC)cc1
562 nM	CCC(=O)N1c2ccccc2-c2nnc(SC)nc2O[C@H]1c1ccccc1OC
331 nM	C=CCSc1nnc2c(n1)O[C@@H](c1ccc(C)s1)N(C(C)=O)c1ccccc1-2
1510 nM	CSc1nnc2c(n1)O[C@@H](c1ccc(Br)cc1)N(C(C)=O)c1ccccc1-2
1000 nM	CCSc1nnc2c(n1)O[C@H](c1ccc(OC(C)=O)c(OC)c1)N(C(C)=O)c1ccccc1-2
4270 nM	CCSc1nnc2c(n1)O[C@H](c1cc3c(cc1Br)OCO3)N(C(C)=O)c1ccccc1-2

EC50	Structure (SMILES)
490 nM	CCCSc1nnc2c(n1)O[C@@H](c1ccncc1)N(C(C)=O)c1ccccc1-2
158 nM	CCCSc1nnc2c(n1)O[C@@H](c1ccccc1OC)N(C(C)=O)c1ccccc1-2
3240 nM	CCC(=O)Oc1ccc(Cl)cc1[C@@H]1Oc2nc(SC)nnc2-c2ccccc2N1C(=O)CC
191 nM	CCC(=O)N1c2ccccc2-c2nnc(SC)nc2O[C@H]1c1cc(OC)ccc1OC
1230 nM	CCOc1ccccc1[C@@H]1Oc2nc(SC)nnc2-c2ccccc2N1C(C)=O
2040 nM	CCSc1nnc2c(n1)O[C@H](c1ccccc1C)N(C(C)=O)c1ccccc1-2
1820 nM	CCSc1nnc2c(n1)O[C@H](c1cccnc1)N(C(C)=O)c1ccccc1-2
1260 nM	CSc1nnc2c(n1)O[C@@H](c1cccc(F)c1)N(C(C)=O)c1ccccc1-2
4070 nM	CSc1nnc2c(n1)O[C@@H](c1c(C)[nH]c3ccccc13)N(C(C)=O)c1ccccc1-2
398 nM	CCOc1ccc(Br)cc1[C@@H]1Oc2nc(SC)nnc2-c2ccccc2N1C(=O)CC
1950 nM	CCCC(=O)N1c2ccccc2-c2nnc(SC)nc2O[C@H]1c1cccc(C)n1
1320 nM	CCCSc1nnc2c(n1)O[C@H](c1ccccc1OC(C)=O)N(C(C)=O)c1ccccc1-2
3800 nM	CCSc1nnc2c(n1)O[C@@H](c1cc(OC(C)=O)ccc1Cl)N(C(C)=O)c1ccccc1-2
9550 nM	CSc1nnc2c(n1)O[C@@H](c1cccn1C)N(C(C)=O)c1ccccc1-2
1200 nM	CCSc1nnc2c(n1)O[C@@H](c1ccc(C)s1)N(C(C)=O)c1ccccc1-2
2090 nM	CCCC(=O)N1c2ccccc2-c2nnc(SC)nc2O[C@H]1c1ccc(OC)cc1OC
871 nM	CCCC(=O)N1c2ccccc2-c2nnc(SC)nc2O[C@H]1c1cccs1
1120 nM	CCCOc1ccccc1[C@@H]1Oc2nc(SCC)nnc2-c2ccccc2N1C(C)=O
871 nM	CCSc1nnc2c(n1)O[C@@H](c1ccco1)N(C(C)=O)c1ccccc1-2
1120 nM	CCC(=O)N1c2ccccc2-c2nnc(SC)nc2O[C@H]1c1ccc(Br)s1
1380 nM	CCOc1cc([C@@H]2Oc3nc(SC)nnc3-c3ccccc3N2C(=O)CC)ccc1OC
2240 nM	CCCC(=O)N1c2ccccc2-c2nnc(SC)nc2O[C@H]1c1ccc(C)o1
832 nM	C=CCSc1nnc2c(n1)O[C@@H](c1cccnc1)N(C(C)=O)c1ccccc1-2
